Experimental data published in PubChem BioAssay AID1963866 (Molecular Pharmacology Branch, DTP, NCI, 2024).

System: PDC KRAS tumor spheroids with HUVEC/MSC, viability
Assay: Anticancer human tumor 349418-098-R-PDC patient-derived lung adenocarcinoma cell line growth inhibition [KRAS2]
Conditions: for IC50: curve of first compound; for viability, T/C: stronger effect = lower value
Procedure, shortened: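 KRAS-mutant tumor cells were grown as spheroids with HUVEC endothelial cells and human MSCs as stroma. Targeted agents were tested alone and with KRAS pathway inhibitors. Doses started at or near clinical Cmax, or 10 microM, descending half-log.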

[1] = second compound 0.1 µM, first compound 0.000316 µM
[2] = second compound 0.1 µM, first compound 0.001 µM
[3] = second compound 0.1 µM, first compound 0.00316 µM
[4] = second compound 0.1 µM, first compound 0.01 µM
[5] = second compound 0.1 µM, first compound 0.0316 µM
[6] = second compound 0.316 µM, first compound 0.000316 µM
[7] = second compound 0.316 µM, first compound 0.001 µM
[8] = second compound 0.316 µM, first compound 0.00316 µM
[9] = second compound 0.316 µM, first compound 0.01 µM
[10] = second compound 0.316 µM, first compound 0.0316 µM
[11] = second compound 1 µM, first compound 0.000316 µM
[12] = second compound 1 µM, first compound 0.001 µM
[13] = second compound 1 µM, first compound 0.00316 µM
[14] = second compound 1 µM, first compound 0.01 µM
[15] = second compound 1 µM, first compound 0.0316 µM
[16] = second compound 3.16 µM, first compound 0.000316 µM
[17] = second compound 3.16 µM, first compound 0.001 µM
[18] = second compound 3.16 µM, first compound 0.00316 µM
[19] = second compound 3.16 µM, first compound 0.01 µM
[20] = second compound 3.16 µM, first compound 0.0316 µM
[21] = second compound 10 µM, first compound 0.000316 µM
[22] = second compound 10 µM, first compound 0.001 µM
[23] = second compound 10 µM, first compound 0.00316 µM
[24] = second compound 10 µM, first compound 0.01 µM
[25] = second compound 10 µM, first compound 0.0316 µM
[26] = second compound 0.1 µM, first compound 0.1 µM
[27] = second compound 0.316 µM, first compound 0.1 µM
[28] = second compound 1 µM, first compound 0.1 µM
[29] = second compound 3.16 µM, first compound 0.1 µM
[30] = second compound 10 µM, first compound 0.1 µM
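Also: spheroids exposed to compounds for seven days before readout.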

Structure (SMILES)	IC50 (second compound 0.1 µM) [nM]	IC50 (second compound 0.316 µM) [nM]	IC50 (second compound 1 µM) [nM]	IC50 (second compound 3.16 µM) [nM]	IC50 (second compound 10 µM) [nM]	viability, T/C [1] [%]	viability, T/C [2] [%]	viability, T/C [3] [%]	viability, T/C [4] [%]	viability, T/C [5] [%]	viability, T/C [6] [%]	viability, T/C [7] [%]	viability, T/C [9] [%]	viability, T/C [10] [%]	viability, T/C [14] [%]	viability, T/C [15] [%]	viability, T/C [19] [%]	viability, T/C [20] [%]	viability, T/C [24] [%]	viability, T/C [25] [%]	other results
CC(=O)Nc1cccc(-n2c(=O)n(C3CC3)c(=O)c3c(Nc4ccc(I)cc4F)n(C)c(=O)c(C)c32)c1 + CNCc1ccccc1-c1csc(C(C)Nc2nc(C)nc3cc(OC)c(OC)cc23)c1	< 0.1	< 0.1	< 0.1	< 0.1	< 0.1	12.7	10.5	9.99	8.08	5.08	12.2	9.67	7.29	5.28	5.69	4.51	0.1	0.08	0.08	0.13	viability, T/C (second compound 0.1 µM, first compound 0.0001 µM): 21.2%; viability, T/C (second compound 0.316 µM, first compound 0.0001 µM): 20.8%; viability, T/C [8]: 7.39%; viability, T/C (second compound 1 µM, first compound 0.0001 µM): 17%; viability, T/C [11]: 8.66%; viability, T/C [12]: 7.27%; viability, T/C [13]: 5.84%; viability, T/C (second compound 3.16 µM, first compound 0.0001 µM): 0.05%; viability, T/C [16]: 0.03%; viability, T/C [17]: 0.02%; viability, T/C [18]: 0.02%; viability, T/C (second compound 10 µM, first compound 0.0001 µM): 0.13%; viability, T/C [21]: 0.08%; viability, T/C [22]: 0.07%; viability, T/C [23]: 0.07%
CC(=O)OC12COC1CC(O)C1(C)C(=O)C(O)C3=C(C)C(OC(=O)C(O)C(NC(=O)OC(C)(C)C)c4ccccc4)CC(O)(C(OC(=O)c4ccccc4)C21)C3(C)C (stereo not given) + CNCc1ccccc1-c1csc(C(C)Nc2nc(C)nc3cc(OC)c(OC)cc23)c1	< 10	< 10	< 10	< 10	< 10	–	–	–	13.4	14.8	–	–	10.7	13.9	11	15.3	8.03	0.13	0.19	0.12	viability, T/C [26]: 18.9%; viability, T/C (second compound 0.1 µM, first compound 0.316 µM): 17.3%; viability, T/C (second compound 0.1 µM, first compound 1 µM): 22%; viability, T/C (second compound 0.1 µM, first compound 3.16 µM): 24.9%; viability, T/C [27]: 15.6%; viability, T/C (second compound 0.316 µM, first compound 0.316 µM): 17.8%; viability, T/C (second compound 0.316 µM, first compound 1 µM): 21%; viability, T/C (second compound 0.316 µM, first compound 3.16 µM): 21.6%; viability, T/C [28]: 15%; viability, T/C (second compound 1 µM, first compound 0.316 µM): 21.2%; viability, T/C (second compound 1 µM, first compound 1 µM): 23.8%; viability, T/C (second compound 1 µM, first compound 3.16 µM): 24.2%; viability, T/C [29]: 0.09%; viability, T/C (second compound 3.16 µM, first compound 0.316 µM): 0.15%; viability, T/C (second compound 3.16 µM, first compound 1 µM): 0.1%; viability, T/C (second compound 3.16 µM, first compound 3.16 µM): 23.6%; viability, T/C [30]: 0.12%; viability, T/C (second compound 10 µM, first compound 0.316 µM): 0.17%; viability, T/C (second compound 10 µM, first compound 1 µM): 22.6%; viability, T/C (second compound 10 µM, first compound 3.16 µM): 0.21%
CN(C)C/C=C/C(=O)Nc1cc2c(Nc3ccc(F)c(Cl)c3)ncnc2cc1O[C@H]1CCOC1 + CNCc1ccccc1-c1csc(C(C)Nc2nc(C)nc3cc(OC)c(OC)cc23)c1	> 100	> 100	> 100	< 0.316	< 0.316	105	108	102	97	108	98.2	103	99.9	97.8	94.2	84.9	0.41	0.63	0.08	0.08	viability, T/C [26]: 91.5%; viability, T/C [8]: 103%; viability, T/C [27]: 91.2%; viability, T/C [11]: 107%; viability, T/C [12]: 104%; viability, T/C [13]: 87.7%; viability, T/C [28]: 95.4%; viability, T/C [16]: 0.27%; viability, T/C [17]: 0.17%; viability, T/C [18]: 0.19%; viability, T/C [29]: 0.26%; viability, T/C [21]: 0.08%; viability, T/C [22]: 0.07%; viability, T/C [23]: 0.07%; viability, T/C [30]: 0.13%
